In patent US9682928B2 (NeuroPro Therapeutics, Inc., priority 2009, dated 2017):
Entries after “also recorded” stand apart in the source; their conditions may differ.

Columns and labels:
Rat [1] = assay: Cortical spreading depression (rat), IP administration; assay type: in vivo
Na+K+Cl− co-transporter = target: T1, Na+K+Cl− co-transporter (Rattus norvegicus, UniProt E9PTX9); assay: Na+K+Cl− cotransporter assay, 86Rb uptake in A7r5 cells; assay type: cell-based; conditions: 10 minutes at 37° C.; for inhibition at 10 µM: read-out: % Inhibition of Control Values; for remaining activity at 10 µM: read-out: % of Control Value
T1 construct: endogenous in cells; host or cells: A7r5 cells
T1 sequence (E9PTX9 1-1203): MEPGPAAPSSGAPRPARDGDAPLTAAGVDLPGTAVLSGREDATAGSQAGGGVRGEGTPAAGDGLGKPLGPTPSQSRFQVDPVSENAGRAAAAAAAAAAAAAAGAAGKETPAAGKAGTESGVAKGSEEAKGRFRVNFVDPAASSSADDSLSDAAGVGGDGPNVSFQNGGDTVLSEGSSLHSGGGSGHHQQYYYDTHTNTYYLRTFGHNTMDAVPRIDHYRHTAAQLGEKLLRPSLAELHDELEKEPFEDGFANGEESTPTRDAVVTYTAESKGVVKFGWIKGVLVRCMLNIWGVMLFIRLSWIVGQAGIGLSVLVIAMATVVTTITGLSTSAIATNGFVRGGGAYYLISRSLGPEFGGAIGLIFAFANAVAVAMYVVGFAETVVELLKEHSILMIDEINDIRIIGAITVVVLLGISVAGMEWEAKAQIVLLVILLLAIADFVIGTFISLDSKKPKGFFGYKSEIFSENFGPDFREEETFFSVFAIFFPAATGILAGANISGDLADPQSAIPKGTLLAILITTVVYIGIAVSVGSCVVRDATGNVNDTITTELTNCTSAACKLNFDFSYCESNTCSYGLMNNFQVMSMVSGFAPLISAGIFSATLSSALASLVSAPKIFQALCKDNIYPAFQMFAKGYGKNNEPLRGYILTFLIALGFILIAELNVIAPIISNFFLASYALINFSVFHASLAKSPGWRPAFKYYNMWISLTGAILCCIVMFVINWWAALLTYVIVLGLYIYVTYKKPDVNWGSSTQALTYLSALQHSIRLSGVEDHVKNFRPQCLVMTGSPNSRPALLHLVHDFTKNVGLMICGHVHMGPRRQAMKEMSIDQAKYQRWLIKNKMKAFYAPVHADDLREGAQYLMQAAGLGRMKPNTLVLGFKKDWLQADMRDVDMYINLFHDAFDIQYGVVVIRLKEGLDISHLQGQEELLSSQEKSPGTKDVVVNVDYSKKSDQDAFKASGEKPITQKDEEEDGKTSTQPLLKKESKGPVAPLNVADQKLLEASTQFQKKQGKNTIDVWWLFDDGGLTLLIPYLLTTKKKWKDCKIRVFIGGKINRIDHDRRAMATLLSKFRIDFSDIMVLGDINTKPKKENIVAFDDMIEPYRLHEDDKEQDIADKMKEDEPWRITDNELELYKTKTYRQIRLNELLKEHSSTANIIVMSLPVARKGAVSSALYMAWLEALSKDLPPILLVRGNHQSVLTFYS
Method: Na^+K^+Cl^− co-transporter activity was measured in vitro in A7r5 cells by measuring their uptake of ^86Rb (0.2 μCi) in 10 minutes at 37° C. as detected by scintillation counting. See Chassande, et al. (1988) “The Na^+/K^+/Cl^− Cotransport in C6 glioma cells. Properties and role in volume regulation.” Eur. J. Biochem. 171: 425433.

Rat [2] = assay: Exploratory Bennett neuropathic pain (rat), plus inhibitor; assay type: in vivo
male Sprague Dawley rats = assay: Taxol-induced peripheral neuropathy (rat), mechanical allodynia (von Frey); assay type: in vivo; conditions: for Pain relief as measured by mechanical allodynia: rat, IP, Day 32, 75 mg/kg (NTP-2014, NTP-2026)
From the text: In this study, an animal model of Taxol-induced sensory neuropathy was employed to evaluate the effects of the sponsor's test compounds, for response to tactile sensitivity using von Frey test of mechanical allodynia. […] Therefore, Taxol-induced mechanical allodynia was employed as the measured behavioral endpoint.
The test substance was homogenized and dispersed using a mortar and a pestle in 0.2% hydroxypropylmethylcellulose (HPMC) in physiological saline, which served as the vehicle. Test articles were administered intraperitoneally in dose volumes of 10 mL/kg body weight. Preparations were made freshly for each day of administration.
Prior to test article NTP-2024 and vehicle control group administration, rats were pretreated at 30 minutes and again at 10 minutes prior to test article administration with a general metabolic inhibitor, piperonyl butoxide (150 mg/kg i.p.) in DMSO, at a volume of 1 mL/kg.
The reference article, Gabapentin, was formulated in saline to a concentration of 100 mg/mL and delivered […] at a dose volume of 1 mL/kg body weight (for a dosing concentration of 100 mg/kg).
All animals were administered Taxol, 2 mg/kg, IP at a dose volume of 1 mL/kg, on Days 1, 3, 5 and 7.
On Day 32, all animals received a single intraperitoneal injection of test article or vehicle according to Tables 1 and 2. For group 1 (vehicle), rats were pre-treated with Piperonyl butoxide (150 mg/kg IP, dose volume of 1 mL/kg) at 30 minutes and again at 10 minutes prior to vehicle administration. Four animals in group 3 (NTP-2024) were also pre-treated with Piperonyl butoxide (150 mg/kg IP, dose volume of 1 mL/kg) at 30 minutes and again at 10 minutes prior to vehicle administration. Animals in Groups 2, 3, 4, & 5 were pre-treated with Saline (dose volume of 1 mL/kg, IP) at 30 minutes and again at 10 minutes prior to test article administration. With the exception of animals in group 2, the animals received an IP injection of vehicle or test article 30 min prior to mechanical allodynia testing. Animals were dosed at a volume of 10 mL/kg.
Animals in group 2, received an IP injection of Gabapentin 90 minutes prior to mechanical allodynia testing. Animals were dosed at a volume of 1 mL/kg.
All animals underwent von Frey testing for mechanical allodynia. On testing days, the animals were returned to the chambers and allowed approximately 15 minutes to explore their surroundings prior to testing. A series of filaments were applied to the left hind paw. A 2.0 g filament was first applied to the plantar surface, if the animal responded to the filament (by lifting its paw) then the next smaller filament was applied. […] This is repeated in an “Up down” method for four responses after the first initial change in response.
The original study design used thermal hyperalgesia as the main parameter for testing the ability of the test compounds to ameliorate the pain associated with the Taxol injection. The treatment inclusion was set at a 20% drop from baseline values as determined on Day 28. […] The study design was amended to use mechanical allodynia as the testing parameter. […] This changed the testing days from Day 28 to Day 31 for allodynia confirmation and Day 29 to Day 32 for testing the article efficacy. Additional animals were received to complete the group size designation. These animals were tested for mechanical allodynia only. The study was then further amended to remove the piperonyl butoxide as a pre-treatment for Group 3 (NTP-2024). […] Because this study was conducted in two portions, four (4) animals from Group 3 received the metabolic inhibitor and five (5) received Saline as a pre-treatment.
The group mean results were analyzed versus the vehicle control group using a two way ANOVA, followed by a Bonferroni post-hoc test. Individual groups were tested pre and post dose using a paired t-test.

CCCCNc1cc(C(=O)O)cc(S(N)(=O)=O)c1Oc1ccccc1 [Bumetanide, reference compound]
Decrease in CSD events (Rat [1]; 10 and 30 mg/kg, p~0.05): CSD events (~30%) at 10 and 30
inhibition at 10 µM (Na+K+Cl− co-transporter): 76%
remaining activity at 10 µM (Na+K+Cl− co-transporter): 24%

CCCCN(CCCC)c1cc(C(=O)O)cc(S(N)(=O)=O)c1Oc1ccccc1 [NTP-2014, 3-Aminosulfonyl-5-N,N-dibutylamino-4-phenoxybenzoic acid]
Activity against tactile allodynia (Rat [2]): Significant effects against tactile allodynia
Activity compared to GBP at 100 mg/kg (male Sprague Dawley rats; 75 mg/kg): mechanical allodynia-equal to if not better activity
Pain relief as measured by mechanical allodynia (male Sprague Dawley rats; 75 mg/kg): significant improvement in allodynia; also recorded: significant treatment effect; also recorded: effective analgesic effects
Change in CSD events (Rat [1]; 10 mg/kg IP, p < 0.05): −38%
Change in CSD events (Rat [1]; 50 mg/kg IP, p < 0.05): −37%
Change in CSD events (Rat [1]; 75 mg/kg IP, p < 0.05): −47%
inhibition at 10 µM (Na+K+Cl− co-transporter): -4%
remaining activity at 10 µM (Na+K+Cl− co-transporter): 104%

CCCCNc1cc(C(=O)NN2CCOCC2)cc(S(N)(=O)=O)c1Oc1ccccc1 [NTP-2024, N-Morpholinyl 3-Aminosulfonyl-5-N-butylamino-4-phenoxybenzamide]
Activity against tactile allodynia (Rat [2]): Dose-related activity against tactile
Mean allodynia score (male Sprague Dawley rats; metabolic inhibitor pre-treatment removed): 8.04 g
Mean allodynia score (male Sprague Dawley rats; pre-treated with the metabolic inhibitor (PBx)): 14.92 g
Decrease in CSD events (Rat [1]; 300 mg/kg, co-administered general metabolic inhibitor (NS)): 32% decrease in CSD events at
% Inhibition of Control Values (Na+K+Cl− co-transporter; 10 μM): 20%
% of Control Value (Na+K+Cl− co-transporter; 10 μM): 80.2%

CCCCNc1cc(C(=O)N(C)CCCN(C)C)cc(S(N)(=O)=O)c1Oc1ccccc1 [NTP-2026, N-(3-(Dimethylamino)propyl)-N-methyl 3-Aminosulfonyl-5-N-butylamino-4-phenoxybenzamide]
Activity against tactile allodynia (Rat [2]): Very low doses tested, no significant
Animals with complete reversal of allodynia (male Sprague Dawley rats; group of nine rats): Three of the nine animals
Pain relief as measured by mechanical allodynia (male Sprague Dawley rats; 75 mg/kg): slight improvement; also recorded: Several animals demonstrated complete responses
Decrease in CSD events (Rat [1]; 10-75 mg/kg, p < 0.05): CSD events (~30-40%) at 10-75
